The record followed here is US9241964B2, “Composition from Sphaeranthus indicus and Garcinia mangostana for the control of metabolic syndrome” (LAILA NUTRACEUTICALS, priority 2009, dated 2016).

Assay [1] deals with perilipin. Nature of the assay: Immunoblot of perilipin in 3T3-L1 adipocytes. It counts as cell-based, mouse. The settings on record: immunoblot normalized with actin. An excerpt:
The inventors have then evaluated the modulation of metabolic biomarkers those are primarily responsible for the adipogenesis processes, insulin resistance in type 2 diabetes, obesity, metabolic syndrome and other metabolic disorders such as Peroxisome proliferator-activated receptor gamma (PPARγ), CD36, adipocyte fatty acid binding protein 4 (FABP4 or aP2), Perilipin, and beta-3 Adrenergic Receptor (β3AR) during adipogenesis process in 3T3-L1 adipocytes by ethyl actate extract (LI/DD-II/054A/01) of Sphaeranthus indicus and 7-hydroxyfrullanolide (LI054A01) using an immunoblot assay. […] The protein extracts were evaluated by immunoblot assay, and the immuno-reactive bands were developed with West-pico chemiluminescent substrate and the blot images were captured in a Kodak Image Station, normalized with expression of actin.
Experimental protocol: Mouse pre-adipocyte 3T3-L1 cells are maintained in Dulbecco's Modified Eagles Medium (DMEM) supplemented with 2 mM glutamine, 4.5 g/L glucose and 10% fetal bovine serum. […] Protein content was measured in Bradford method by using Coomassie blue dye and cell lysates were stored in aliquots at −80° C. until further use. […]
Inhibition of protein expression of biomarker molecules adipocytes in presence or absence of Sphaeranthus indicus extract LI/DD-II/054A/01 and 7-hydroxyfrullanolide (LI054A01) was evaluated in immunoblot assay. […]

Assay [2] deals with 3T3-L1 mouse pre-adipocyte cells. Nature of the assay: Inhibition of lipid accumulation in differentiated adipocytes (Oil Red O). The assay is classed as cell-based. The settings on record: Mus musculus; at 0.5 μg/ml; 3T3-L1 (Table I). The protocol:
The inhibition of fat accumulation in the treated cells was compared with the mock treated differentiated adipocytes and percentage inhibition was measured.
One hundred thousand 3T3-L1 […] pre-adipocyte cells in Dulbecco's Modified Eagles Medium (DMEM) containing 10% Fetal Bovine Serum (FBS) were taken into each well of a 24-well plate and incubated for 48 h at 37° C. and 5% CO2. The differentiation of pre-adipocyte cells was initiated in a differentiation medium containing 10 μg/ml insulin, 1.0 μM dexamethasone, and 0.5 mM isobutylmethylxanthine (IBMX) for 48 h. After this the medium was replaced by DMEM containing 10 μg/ml insulin and incubated for 3 days. Then the differentiating cells were treated 10 μg/ml of Sphaeranthus indicus ethyl acetate extract (LI/DD-II/054A/01) and 0.5 μg/ml of 7-hydroxyfrullanolide (LI054A01) and maintained in the medium for another 3-5 days. The cells incubated with 0.1% DMSO were considered as the vehicle control. After the incubation period, cells were washed with phosphate buffered saline (PBS) and fixed with 10% buffered formalin for 1 h at room temperature. One small aliquot of cell suspension was separated for cell counting in hemocytometer chamber. Fixed cells were stained with Oil Red O solution to measure the cellular neutral lipid accumulation. Briefly, cells were washed with PBS, fixed with 10% buffered formalin and stained with Oil Red O solution (0.5 g in 100 ml isopropanol) for 10 min. After removing the staining solution, the dye retained in the cells will be eluted into isopropanol and OD measured at 550 nm. The inhibition of fat accumulation in the treated cells was compared with the mock treated differentiated adipocytes. The treated and control cells were also analyzed and compared for inhibition of lipid accumulation visually under microscope and recorded digitally in suitable image capture system. The anti-adipogenic activities shown by Sphaeranthus Indicus ethyl acetate extract (LI/DD-II/054A/01) and LIO054A01 are summarized in the following table.

As usually defined, the inhibition is the share of the control response that was lost under treatment. The low end stands for a response near the control, the high end for a response far below the control. With `C=C1C(=O)O[C@H]2C3=C(C)CCC[C@]3(C)CC[C@@]12O` [LI054A01, 7-α-hydroxy-4,11(13)-eudesmadien-12,6-olide], the perilipin protein level result in assay [1] is listed as “potently ameliorated”. The compound further registered an inhibition at 0.5 µg/mL in assay [2] of 68.7%.
